Measured values reported in US11123314B2 (NATIONAL CANCER CENTER, priority 2017, dated 2021).

Tests used:
[1] = test system: Miapaca2 pancreatic cancer cell line; experiment: Pancreatic cancer mouse model (xenograft), tumor volume and weight; assay type: in vivo, Balb/c-nu mice; conditions: gossypol 40 mg/kg, phenformin 100 mg/kg, oral once a day, alone or combined; compared with solvent control
Description: (§1) First, 6- to 8-week-old Balb/c-nu mice (Central Lab. Animal, Highland Heights, Ky., USA) were prepared to make a pancreatic cancer mouse model. In addition, Miapaca2 pancreatic cancer cell line was cultured at 5.0×10^6 cells, and subcutaneously injected into the prepared mice with a 1-ml syringe. The mice were bred for 2 weeks, and divided into four groups in total, with each group containing 6 mice. The four groups were used as a solvent control group (10% DMSO, 40% PEG, 50% PBS), a group in which 40 mg/kg/100 μl of gossypol is administered alone, a group in which 100 mg/kg/100 μl of phenformin is administered alone, and a group in which gossypol+phenformin are administered in combination, respectively. To each mouse group was orally administered once a day the solvent or the drug, and the mice were bred in the same environment for a total of 61 days.
(§2) While breeding the mice, body weights and tumor sizes in each mouse group were checked every 3 days and averaged. A size of the initial tumor after injection of pancreatic cancer cells was determined using a caliper. A tumor volume was calculated using the following Equation 1.

[2] = test system: Miapaca2, Panc-1, or Aspc-1 cells; experiment: Intracellular ATP level (ATP Colorimetric/Fluorometric Analysis Kit); assay type: cell-based; conditions: gossypol 5 μM, phenformin 500 μM, alone or mixed; compared with control group with no drug treatment
Description: Then, an intracellular ATP level was checked with the ATP Colorimetric/Fluorometric Analysis Kit (BioVision, Milpitas, Calif., USA) according to the protocol provided by the manufacturer. The cultured cells were divided into 1×10^6 cells and 100 μl of ATP assay buffer was added thereto to dissolve the cells. Then, centrifugation was performed at 15,000×g for 2 minutes at 4° C., to separate only the supernatant. 2 to 50 μl of the separated supernatant was transferred to a 96-well plate, and then an ATP assay buffer was added to a final volume of 50 μl per well. Thereafter, an ATP reaction mixture containing 44 μl of ATP assay buffer, 2 μl of ATP probe, 2 μl of ATP converter, and 2 μl of developer mixture was added to the 96-well plate at 50 μl per well and mixing was performed.

[3] = test system: Miapaca2, Panc-1, or Aspc-1 cells; conditions: applied alone at low drug concentration (gossypol 5 or 10 μM; phenformin 100 or 500 μM)
Description: (§3) Specifically, each type of various pancreatic cancer cell lines, Miapaca-2, Panc-1, Aspc-1, SNU-410, SNU-324, and Bxpc-3 cells, was cultured, during which each type of cells was inoculated into a 96-well plate at a density of 5,000 to 20,000 cells/well depending on an amplification period of culture time. After inoculation, gossypol or phenformin was added to each well and incubated in a CO2 incubator for 24 hours. Then, the cells were fixed by adding 50% (w/v) cooled trichloroacetic acid (TCA) to each well so as to become a final concentration of 10%. The supernatant other than the fixed cells was removed and the plate was washed about five times with tap water and then air dried. After drying, 0.4% (w/v) sulforhodamine B buffer solution containing 1% acetic acid was added to each well, and the plate was left to stand at room temperature for 10 minutes so that the cells were stained. After staining the cells, the plate was washed 5 times with 1% acetic acid to remove unstained dye, and then air dried. The stained dye was immobilized with 10 mM trizma base, and then absorbance was measured at 515 nm using a plate reader.
Specifically, Miapaca2, Panc-1, or Aspc-1 cells were cultured. Each type of the cultured cells was treated with a mixed drug obtained by mixing gossypol 5 μM and phenformin 100 μM, or gossypol 10 μM and phenformin 500 μM, and cultured in the same manner.

[4] = test system: pancreatic cancer cell lines Miapaca-2, Panc-1, Aspc-1, SNU-410, SNU-324, Bxpc-3; experiment: SRB assay, inhibitory effect of gossypol or phenformin alone on growth of pancreatic cancer cells; assay type: cell-based; conditions: for inhibitory effect on cell proliferation: 48 hours after treatment with the drug, applied alone; for proliferation of the cancer cells: gossypol or phenformin added alone to each type of the pancreatic cancer cells, SRB assay
Description: as §3

[5] = Pancreatic cancer mouse model, body weight; conditions: oral once a day, 61 days; compared among experimental groups
Description: as §1, §2

[6] = test system: normal epithelial cell line IMR90; experiment: Annexin V-FITC/PI apoptosis detection by flow cytometry in normal cells; conditions: gossypol 10 μM, phenformin 100 μM, alone or mixed; 24, 48 and 72 hours
Description: First, the normal epithelial cell line IMR90 was cultured. Then, the cultured cells were treated with a single drug of gossypol 10 μM or phenformin 100 μM, or a mixed drug obtained by mixing them, and culture was performed for 24, 48, and 72 hours in total. The medium was removed from the cultured cells, and the cultured cells were washed twice with cold PBS. Centrifugation was performed at 1,400 rpm for 3 minutes, and then a binding buffer solution was added thereto at a concentration of 1×10^6 cells/mL. […] of the buffer solution was transferred to a 5-mL culture tube, and 5 μl of each of Annexin V-FITC and propidium iodide (PI) was added thereto. The tube was slowly vortexed to perform mixing, and then incubated for 15 minutes in a dark room at room temperature. After the incubation, a binding buffer solution (400 μl) was added thereto and a level of increase in cell death was checked by flow cytometry.

[7] = test system: Miapaca2, Panc-1, CAPAN1, CAPAN2, ASPC-1, SNU-213, SNU-324, or BXPC-3 cells; experiment: SRB assay, combined treatment with gossypol, phenformin and anti-cancer agent (triple combination); assay type: cell-based; conditions: 48 hours; compared with group given gossypol or phenformin alone; gossypol 2.5 or 5 μM, phenformin 100 μM, irinotecan 1 μM
Description: Specifically, Miapaca2, Panc-1, CAPAN1, CAPAN2, ASPC-1, SNU-213, SNU-324, or BXPC-3 cells were cultured. Each type of the cultured cells was treated with gossypol, phenformin, or irinotecan alone, or with a mixed drug thereof. […] As a control group, an untreated group with no drug treatment was used, and a relative cell proliferation level in each drug-treated group was expressed and calculated as a percentage as compared with the control group.

SMILES	level of increase in tumor volume [1]	intracellular ATP level [2]	inhibition of cell growth [3]	inhibitory effect on cell proliferation [4]	proliferation of the cancer cells [4]	body weights [5]	cell death over time in IMR90 normal cells [6]	proliferation level in pancreatic cancer cells [7]
Cc1cc2c(C(C)C)c(O)c(O)c(C=O)c2c(O)c1-c1c(C)cc2c(C(C)C)c(O)c(O)c(C=O)c2c1O [gossypol]	somewhat decreased	decreased	significant inhibition of cell growth was not exhibited	complete inhibitory effect on cell proliferation	significantly inhibited	not significantly different	significant increase in cell death is not exhibited	–
[H]/N=C(/N)N/C(=N/[H])NCCc1ccccc1 [phenformin]	somewhat decreased	decreased	significant inhibition of cell growth was not exhibited	complete inhibitory effect on cell proliferation	significantly inhibited	–	significant increase in cell death is not exhibited	–
CCc1c2c(nc3ccc(OC(=O)N4CCC(N5CCCCC5)CC4)cc13)-c1cc3c(c(=O)n1C2)COC(=O)[C@]3(O)CC [irinotecan]	–	–	–	–	–	–	–	significantly decreased
